What all share (assay type): biochemical
The target of assay [1] is T1, Hordeum HPPD (SEQ ID: 2) (Hordeum vulgare, UniProt O48604, A164G/R146V/R147D/R148G).
T1 construct: His (N); made in house; host or cells: E. coli BL21 (DE3)
The experiment in a line: HPPD activity assay, Hordeum wild-type HPPD. As for the experimental part:
(§1) HPPD produces homogentisic acid and CO2 from 4-hydroxyphenylpyruvate (4-HPP) and O2. The activity assay for HPPD is based on the analysis of homogentisic acid by reversed phase HPLC.
(§2) The assay mixture can contain 150 mM potassium phosphate buffer pH 7.0, 50 mM L-ascorbic acid, 1 μM FeSO4 and 7 μg of purified enzyme in a total volume of 1 ml.
(§3) Inhibitors are dissolved in DMSO (dimethylsulfoxide) to a concentration of 20 mM or 0.5 mM, respectively. From this stock solution serial five-fold dilutions are prepared in DMSO, which are used in the assay. The respective inhibitor solution accounts for 1% of the assay volume. […] After a preincubation of 30 min the reaction is started by adding 4-HPP to a final concentration of 0.1 mM. The reaction is allowed to proceed for 120 min at room temperature. The reaction is stopped by addition of 100 μl of 4.5 M phosphoric acid.
(§4) Activities are normalized by setting the uninhibited enzyme activity to 100%. IC50 values are calculated using non-linear regression.
(§5) The assay mixture can contain 150 mM potassium phosphate buffer pH 7.0, 50 mM L-ascorbic acid, 100 μM Catalase (Sigma-Aldrich), 1 μM FeSO4 and 0.2 units of purified HPPD enzyme in a total volume of 505 μl. 1 unit is defined as the amount of enzyme that is required to produce 1 nmol of HGA per minute at 20° C.
(§6) Inhibitors are dissolved in DMSO (dimethylsulfoxide) to a concentration of 0.5 mM. From this stock solution serial five-fold dilutions are prepared in DMSO, which are used in the assay. The respective inhibitor solution accounts for 1% of the assay volume. […] Activities are normalized by setting the uninhibited enzyme activity to 100%. IC50 values are calculated using non-linear regression.
(§7) Using methods which are described in the above examples or well known in the art, purified, recombinant wildtype HPPD enzymes are characterized with respect to their kinetic properties and sensitivity towards HPPD inhibiting herbicides. Apparent michaelis constants (Km) and maximal reaction velocities (Vmax) are calculated by non-linear regression with the software GraphPad Prism 5 (GraphPad Software, La Jolla, USA) using a substrate inhibition model.
(§8) Field performance of the HPPD enzyme, which is used as a herbicide tolerance trait, may depend not only on its lack of sensitivity towards HPPD inhibiting herbicides but also on its activity. To assess the potential performance of a herbicide tolerance trait a tolerance index (TI) is calculated using the following formula: […]

Assay [2] concerns the target T2, Arabidopsis HPPD (SEQ ID: 53) (Arabidopsis thaliana, UniProt P93836).
T2 construct: His6 (N); made in house; host or cells: E. coli BL21 (DE3)
T2 sequence (P93836 1-445): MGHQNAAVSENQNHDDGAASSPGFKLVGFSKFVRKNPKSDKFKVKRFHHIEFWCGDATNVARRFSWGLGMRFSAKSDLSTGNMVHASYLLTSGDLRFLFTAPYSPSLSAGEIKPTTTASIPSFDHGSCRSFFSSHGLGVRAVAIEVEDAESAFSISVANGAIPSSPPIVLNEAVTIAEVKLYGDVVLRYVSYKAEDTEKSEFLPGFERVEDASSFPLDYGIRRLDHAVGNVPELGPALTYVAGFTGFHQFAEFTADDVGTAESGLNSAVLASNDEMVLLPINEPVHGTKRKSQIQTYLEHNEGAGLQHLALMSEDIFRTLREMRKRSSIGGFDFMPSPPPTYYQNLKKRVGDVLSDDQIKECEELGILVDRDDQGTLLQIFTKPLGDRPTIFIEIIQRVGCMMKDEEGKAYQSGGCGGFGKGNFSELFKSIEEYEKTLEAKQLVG
Kind of assay: HPPD activity assay, Arabidopsis wild-type HPPD. Also on record: key to Normalized tolerance index TI: tolerance index relative to Arabidopsis wild-type HPPD (= 1). As for the experimental part:
as §1, §2, §3, §4, §5, §6, §7, §8
Easy comparison and ranking of each trait is enabled by normalizing tolerance indexes on Arabidopsis wild-type HPPD.

Assay [3] addresses T3, Hordeum HPPD variant L353M, P321R, V212I (Hordeum vulgare, UniProt O48604, L353M/P321R/V212I).
T3 construct: His (N); made in house; host or cells: E. coli BL21 (DE3)
Kind of assay: HPPD activity assay, Hordeum HPPD mutant L353M, P321R, V212I. The settings on record: normalized on Hordeum wild-type HPPD. As to the method:
as §1, §2, §3, §4, §5, §6
(§9) Purified, mutant HPPD enzymes are obtained by the methods described above. Dose response and kinetic measurements are carried out using the described HPPD activity assay. Apparent michaelis constants (Km) and maximal reaction velocities (Vmax) are calculated by non-linear regression with the software GraphPad Prism 5 (GraphPad Software, La Jolla, USA) using a substrate inhibition model.
(§10) Field performance of the optimized HPPD enzyme, which is used as a herbicide tolerance trait may depend not only on its lack of sensitivity towards HPPD inhibiting herbicides but also on its activity. To assess the potential performance of a herbicide tolerance trait a tolerance index (TI) is calculated using the following formula: […]
(§11) Easy comparison and ranking of each trait is enabled by normalizing tolerance indexes on Arabidopsis or Hordeum wild-type HPPD.

The target of assay [4] is T4, Hordeum HPPD variant L320Q (Hordeum vulgare, UniProt O48604, A164G/L320Q/R146V/R147D/R148G).
T4 construct: His (N); made in house; host or cells: E. coli BL21 (DE3)
T4 sequence (O48604 whole entry R146V/R147D/R148G/A164G/L320Q): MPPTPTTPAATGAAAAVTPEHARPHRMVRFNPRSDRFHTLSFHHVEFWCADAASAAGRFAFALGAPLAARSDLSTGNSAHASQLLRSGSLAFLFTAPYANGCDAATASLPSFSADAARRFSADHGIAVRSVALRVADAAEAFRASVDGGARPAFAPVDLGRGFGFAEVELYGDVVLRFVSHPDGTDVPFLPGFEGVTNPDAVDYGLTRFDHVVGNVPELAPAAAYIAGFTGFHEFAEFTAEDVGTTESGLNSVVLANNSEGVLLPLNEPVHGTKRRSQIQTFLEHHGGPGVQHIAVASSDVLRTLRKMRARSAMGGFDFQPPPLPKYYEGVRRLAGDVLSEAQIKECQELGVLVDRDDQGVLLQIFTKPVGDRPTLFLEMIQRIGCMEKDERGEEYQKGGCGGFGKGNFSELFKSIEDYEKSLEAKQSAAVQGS
The experiment in a line: HPPD activity assay, Hordeum HPPD mutant L320Q. The settings on record: normalized on Hordeum wild-type HPPD. As for the experimental part: as §1, §2, §3, §4, §5, §6, §9, §10, §11

In assay [5] the target is T5, Hordeum HPPD variant L320N (Hordeum vulgare, UniProt O48604, A164G/L320N/R146V/R147D/R148G).
T5 construct: His (N); made in house; host or cells: E. coli BL21 (DE3)
T5 sequence (O48604 whole entry R146V/R147D/R148G/A164G/L320N): as the sequence (O48604 whole entry R146V/R147D/R148G/A164G/L320Q) above, with Q320N counted along it
The experiment in a line: HPPD activity assay, Hordeum HPPD mutant L320N. The settings on record: normalized on Hordeum wild-type HPPD. As for the experimental part:
as §1, §2, §3, §4, §5, §6, §9, §10, §11

In assay [6] the target is T6, Hordeum HPPD variant G407C (Hordeum vulgare, UniProt O48604, A164G/G407C/R146V/R147D/R148G).
T6 construct: His (N); made in house; host or cells: E. coli BL21 (DE3)
T6 sequence (O48604 whole entry R146V/R147D/R148G/A164G/G407C): as the sequence (O48604 whole entry R146V/R147D/R148G/A164G/L320Q) above, with Q320L, G407C counted along it
Kind of assay: HPPD activity assay, Hordeum HPPD mutant G407C. The conditions noted are these: normalized on Hordeum wild-type HPPD. As for the experimental part: as §1, §2, §3, §4, §5, §6, §9, §10, §11

The target of assay [7] is T7, Hordeum HPPD variant L334E (Hordeum vulgare, UniProt O48604, A164G/L334E/R146V/R147D/R148G).
T7 construct: His (N); made in house; host or cells: E. coli BL21 (DE3)
T7 sequence (O48604 whole entry R146V/R147D/R148G/A164G/L334E): as the sequence (O48604 whole entry R146V/R147D/R148G/A164G/L320Q) above, with Q320L, L334E counted along it
The experiment in a line: HPPD activity assay, Hordeum HPPD mutant L334E. The settings on record: normalized on Hordeum wild-type HPPD. As for the experimental part:
as §1, §2, §3, §4, §5, §6, §9, §10, §11

Assay [8] addresses T8, Hordeum HPPD variant L353M, P321R, L320N (Hordeum vulgare, UniProt O48604, L320N/L353M/P321R).
T8 construct: His (N); made in house; host or cells: E. coli BL21 (DE3)
The experiment in a line: HPPD activity assay, Hordeum HPPD mutant L353M, P321R, L320N. The settings on record: normalized on Hordeum wild-type HPPD. As to the method:
as §1, §2, §3, §4, §5, §6, §9, §10, §11

Assay [9] concerns the target T9, Arabidopsis HPPD variant M335H, P336A, E363Q (Arabidopsis thaliana, UniProt P93836, E363Q/M335H/P336A).
T9 construct: PCR-based site directed mutagenesis of pEXP5-NT/TOPO®-AtHPPD is done; His6 (N); made in house; host or cells: E. coli BL21 (DE3)
Kind of assay: HPPD activity assay, Arabidopsis HPPD mutant M335H, P336A, E363Q. The settings on record: normalized on Arabidopsis wild-type HPPD. As to the method: as §1, §2, §3, §4, §5
Inhibitors are dissolved in DMSO (dimethylsulfoxide) to a concentration of 0.5 mM. […] IC50 values are calculated using non-linear regression. […]
Purified, mutant HPPD enzymes are obtained by the methods described above. […] Apparent michaelis constants (Km) and maximal reaction velocities (Vmax) are calculated by non-linear regression with the software GraphPad Prism 5 (GraphPad Software, La Jolla, USA) using a substrate inhibition model.
as §10

Assay [10] concerns the target T10, Hordeum HPPD variant V212L (Hordeum vulgare, UniProt O48604, A164G/R146V/R147D/R148G/V212L).
T10 construct: His (N); made in house; host or cells: E. coli BL21 (DE3)
Kind of assay: HPPD activity assay, Hordeum HPPD mutant V212L. The conditions noted are these: normalized on Hordeum wild-type HPPD. As for the experimental part: as §1, §2, §3, §4, §5, §6, §9, §10, §11

Assay [11] addresses T11, Hordeum HPPD variant L353M, P321R, V212I, L334E (Hordeum vulgare, UniProt O48604, L334E/L353M/P321R/V212I).
T11 construct: His (N); made in house; host or cells: E. coli BL21 (DE3)
The experiment in a line: HPPD activity assay, Hordeum HPPD mutant L353M, P321R, V212I, L334E. The conditions noted are these: normalized on Hordeum wild-type HPPD. As to the method: as §1, §2, §3, §4, §5, §6, §9, §10, §11

Assay [12] concerns the target T12, Hordeum HPPD variant L320H, P321A (Hordeum vulgare, UniProt O48604, L320H/P321A).
T12 construct: His (N); made in house; host or cells: E. coli BL21 (DE3)
The experiment in a line: HPPD activity assay, Hordeum HPPD mutant L320H, P321A. The conditions noted are these: normalized on Hordeum wild-type HPPD. As for the experimental part: as §1, §2, §3, §4, §5, §6, §9, §10, §11

SMILES strings stand for the structures.

T1 sequence (O48604 whole entry R146V/R147D/R148G/A164G): as the sequence (O48604 whole entry R146V/R147D/R148G/A164G/L320Q) above, with Q320L counted along it
T9 sequence (P93836 whole entry M335H/P336A/E363Q): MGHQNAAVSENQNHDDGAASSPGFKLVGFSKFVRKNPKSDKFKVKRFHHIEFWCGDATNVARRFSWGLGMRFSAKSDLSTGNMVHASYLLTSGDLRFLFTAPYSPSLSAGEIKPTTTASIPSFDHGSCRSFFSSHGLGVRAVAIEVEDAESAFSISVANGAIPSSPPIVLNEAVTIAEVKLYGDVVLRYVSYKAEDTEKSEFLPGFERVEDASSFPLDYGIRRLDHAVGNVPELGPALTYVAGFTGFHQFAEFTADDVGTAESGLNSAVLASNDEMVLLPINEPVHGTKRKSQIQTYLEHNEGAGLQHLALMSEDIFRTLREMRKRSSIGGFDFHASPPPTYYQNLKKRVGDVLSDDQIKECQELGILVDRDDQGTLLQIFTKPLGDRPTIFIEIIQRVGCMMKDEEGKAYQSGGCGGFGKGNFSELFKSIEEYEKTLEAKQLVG
T3 sequence (O48604 whole entry R146V/R147D/R148G/A164G/V212I/P321R/L353M): as the sequence (O48604 whole entry R146V/R147D/R148G/A164G/L320Q) above, with V212I, Q320L, P321R, L353M counted along it
T11 sequence (O48604 whole entry R146V/R147D/R148G/A164G/V212I/P321R/L334E/L353M): as the sequence (O48604 whole entry R146V/R147D/R148G/A164G/L320Q) above, with V212I, Q320L, P321R, L334E, L353M counted along it
T10 sequence (O48604 whole entry R146V/R147D/R148G/A164G/V212L): as the sequence (O48604 whole entry R146V/R147D/R148G/A164G/L320Q) above, with V212L, Q320L counted along it
T8 sequence (O48604 whole entry R146V/R147D/R148G/A164G/L320N/P321R/L353M): as the sequence (O48604 whole entry R146V/R147D/R148G/A164G/L320Q) above, with Q320N, P321R, L353M counted along it
T12 sequence (O48604 whole entry R146V/R147D/R148G/A164G/L320H/P321A): as the sequence (O48604 whole entry R146V/R147D/R148G/A164G/L320Q) above, with Q320H, P321A counted along it

By Km is commonly meant the substrate concentration at which the rate is half of its maximum. In the case of `O=C(O)C(=O)Cc1ccc(O)cc1` [Inhibitor 4-HPP, 4-hydroxyphenylpyruvate, reference compound], the Km amounted to 26 µM in assay [1] (Hordeum HPPD, substrate, read-out: michaelis constant Km (4-HPP)) and 13 µM in [2] (Arabidopsis HPPD, substrate, read-out: michaelis constant Km (4-HPP)).

Regarding `CC1(C)c2cccnc2C(O)=C(c2ccc(Br)cc2C(F)(F)F)S1(=O)=O` [Inhibitor 5, 7-[4-bromo-2-(trifluoromethyl)phenyl]-5,5-dimethyl-6,6-dioxo-thiopyrano[4,3-b]pyridin-8-ol], the “Normalized tolerance index TI” value is 3.3 in [3]; 2.9 in [4]; 2.4 in assay [5]; 4.3 in assay [6]; 2.1 in assay [7]; 1 in assay [1] (Hordeum HPPD Wildtype, normalized on Hordeum wild-type HPPD). In addition, the “Normalized tolerance index TI” value in [8] turned out to be 3.2; in assay [2] (Arabidopsis HPPD Wildtype, normalized on Arabidopsis wild-type HPPD, Table 15), 1; in assay [9], 0.2; in assay [10] it was 1.1; in assay [11] it was 3.4; in assay [12], 6.6.

The values above are taken from patent US20140357487A1, “PLANTS HAVING INCREASED TOLERANCE TO HERBICIDES” (BASF SE, priority 2011, published 2014).
